According to patent publication US5198452A, “Styryl phridyl compounds and their pharmaceutical compositions” (Yoshitomi Pharmaceutical Industries, Ltd., priority 1991, dated 1993):
Read-outs that look alike come from different tables or passages of the source.

Experiments:
[1] = tested on: leukotriene D4-induced contraction of guinea pig terminal ileum; assay: Inhibition of contractions of guinea pig terminal ileum induced with leukotriene D4; set-up: species or system guinea pig (male Hartly); details: 1 nM LTD4; 2 min incubation; indomethacin 3 μM, atropin 0.3 μM; 37° C
Protocol: The inhibition of contractions of guinea pig terminal ileum induced with leukotriene D4.
Segments of male Hartly guinea pig terminal ileus were mounted under 750 mg tension in a 10 ml organ bath containing a Tyrode solution. To eliminate instrinsic prostaglandin and cholinergic responses, indomethacin (3 μM) and atropin (0.3 μM) were incorporated into bathing solution under continuous aeration at 37° C. […] measurements were made with an isotonic transducer and recorded on a multipen-recorder. After an equilibration period of 30-60 minutes, isotonic responses were 1 nm LTD4 were recorded until reproducible responses obtained. The submaximal contraction induced by 1 nM LTD4 served as control. Test compounds were dissolved in ethanol (0.1% final concentration) and incubated at various concentrations for 2 minutes before contractions were induced with 1 nM LTD4. The inhibition of contraction was calculated relative to the preceding control contraction. The inhibitory concentration (IC50, g/ml) were calculated graphically.

[2] = tested on: bronchoconstriction in guinea pigs induced with leukotriene D4; assay: Bronchoconstriction in guinea pigs induced with leukotriene D4; type: in vivo, guinea pig (female Hartley); details: Cavia porcellus
Protocol: Actions of bronchoconstriction in guinea pigs induced with leukotriene D4.
Resistance to lung inflation was measured by the overflow method of Konzett and Rossler (Naunyn Schmiedebergs Arch. Exp. pathol. Pharmakol., 195, 71-74, 1940), modified by the use of an air pressure transducer. Female Hartley guinea pigs (350-450 g) were anesthetized with urethane (1.5 g/kg, i.p.). An endotracheal tube was inserted in the trachea and connected to an air pump (Matsushita Denko Co., Ltd.) with an exhaust relay of 50 strokes/minutes (PK-0305-NC, Takasago Electric, Inc.). The animals were artificially ventilated at a constant volume (3-4 ml). Tracheal pressure was recorded with a side-arm of the cannula connected to a pressure transducer (MFP-1, Nihon Kohden Kogyo Co., Ltd.). Test compounds or vehicles were administered i.v. (0.03 ml/100 g) 5 minutes or p.o. (0.5 ml/100 g) 1 hour prior to the intraveneous injection of LT04 (1 μg/kg). All compounds were injected through the cannulated jugular vein. The peak bronchoconstriction of each animal was determined as the percentage of the maximal pressure obtained by clamping off the trachea at the end of each experiment.
The inhibitory effect of the test compounds were expressed as follows: % of inhibition=(1-T/C)×100 wherein T and C are the average peak bronchoconstrictions for the compounds of the present invention and the vehicle, respectively.
The 50% effective doses (ED50, mg/kg) were calculated graphically.

Acute toxicity = details: mouse, in vivo, single administration, after 10 days, Litchfield-Wilcoxon
Protocol: EXPERIMENT EXAMPLE 3: ACUTE TOXICITY
The compound of Example 1 of the present invention was intraveneously (iv) or orally (po) administered to a group of male ddy mice once. After 10 days, the LD50 values were determined by the Litchfield-Wilcoxon method.

[3] = 5 min, iv, 5 minutes prior to LTD4 (1 μg/kg i.v.), read-out: Action of Bronchoconstriction in guinea pigs induced with LTD4 [ED50 (mg/kg)] iv
[4] = po, 1 hour prior to LTD4 (1 μg/kg i.v.), read-out: Action of Bronchoconstriction in guinea pigs induced with LTD4 [ED50 (mg/kg)] po

| SMILES | The inhibition of contractions of guinea pig terminal ileum induces with LTD4 [IC50 (g/ml)] [1] | ED50 [2, 3] | ED50 [2, 4] | LD50 at 240 h (Acute toxicity; iv, read-out: LD50 (mg/kg), iv) | LD50 at 240 h (Acute toxicity; po, read-out: LD50 (mg/kg), po) |
| --- | --- | --- | --- | --- | --- |
| CCCCc1ccc(CCCCOCc2cccc(/C=C/c3cccc(NC(=O)CC(CC)(CC)C(=O)O)c3)n2)cc1 [Compound B, 2-[(E)-2-(3-(3-carboxy-3-ethylvalerylamino)phenyl)ethenyl]-6-[4-(4-butylphenyl)butoxy]methylpyridine] | 1.1e-10 g/mL | 0.0054 mg/kg | 0.8 mg/kg |  |  |
| CCC(CC)(CC(=O)Nc1cccc(/C=C/c2cccc(COCCCCc3ccc(C(C)C)cc3)n2)c1)C(=O)O [Compound F, 2-[(E)-2-(3-(3-carboxy-3-ethylvalerylamino)phenyl)ethenyl]-6-[4-(4-isopropylphenyl)butoxy]methylpyridine] | 4e-10 g/mL | 0.014 mg/kg | 2.2 mg/kg |  |  |
| CCC(CC)(CC(=O)Nc1cccc(/C=C/c2cccc(COCCCCc3ccc(OCCC(C)C)cc3)n2)c1)C(=O)O [Compound K, 2-[(E)-2-(3-(3-carboxy-3-ethylvalerylamino)phenyl)ethenyl]-6-[4-(4-isopentyloxyphenyl)butoxy]methylpyridine 1/2 hydrate] | 3.1e-10 g/mL | 0.0036 mg/kg | 0.25 mg/kg |  |  |
| CCc1ccc(CCCCOCc2cccc(/C=C/c3cccc(NC(=O)CC(CC)(CC)C(=O)O)c3)n2)cc1 [Compound D, 2-[(E)-2-(3-(3-carboxy-3-ethylvalerylamino)phenyl)ethenyl]-6-[4-(4-ethylphenyl)butoxy]methylpyridine] | 6.6e-11 g/mL | 0.0023 mg/kg | 1 mg/kg |  |  |
| CCC(CC)(CC(=O)Nc1cccc(/C=C/c2cccc(COCCCCc3ccc(C)cc3)n2)c1)C(=O)O [Example 1, 2-[(E)-2-(3-(3-carboxy-3-ethylvalerylamino)phenyl)ethenyl]-6-[4-(4-methylphenyl)butoxy]methylpyridine] |  |  |  | > 300 mg/kg | > 1000 mg/kg |
| CCC(CC)(CC(=O)Nc1cccc(/C=C/c2cccc(COCCCCc3ccc(CC(C)C)cc3)n2)c1)C(=O)O [Compound G, 2-[(E)-2-(3-(3-carboxy-3-ethylvalerylamino)phenyl)ethenyl]-6-[4-(4-isobutylphenyl)butoxy]methylpyridine] | 3.6e-10 g/mL | 0.0012 mg/kg | 1.6 mg/kg |  |  |
| CCCc1c(OCCCCc2nnn[nH]2)ccc(C(C)=O)c1O [Compound L, 1-[2-hydroxy-3-propyl-4-(4-(1H-tetrazol-5-yl)butoxy)phenyl]ethanone, reference compound] | 2.5e-08 g/mL | 0.28 mg/kg | 22 mg/kg |  |  |
| CCC(CC)(CC(=O)Nc1cccc(/C=C/c2cccc(COCCCCc3ccccc3)n2)c1)C(=O)O [Compound A, 2-[(E)-2-(3-(3-carboxy-3-ethylvalerylamino)phenyl)ethenyl]-6-(4-phenylbutoxy)methylpyridine 1/2 hydrate] | 2.2e-09 g/mL | 0.037 mg/kg | 1.3 mg/kg |  |  |
| CCCOc1ccc(CCCCOCc2cccc(/C=C/c3cccc(NC(=O)CC(CC)(CC)C(=O)O)c3)n2)cc1 [Compound I, 2-[(E)-2-(3-(3-carboxy-3-ethylvalerylamino)phenyl)ethenyl]-6-[4-(4-propoxyphenyl)butoxy]methylpyridine] | 7.6e-11 g/mL | 0.0023 mg/kg | 2.5 mg/kg |  |  |
| CCCc1ccc(CCCCOCc2cccc(/C=C/c3cccc(NC(=O)CC(CC)(CC)C(=O)O)c3)n2)cc1 [Compound E, 2-[(E)-2-(3-(3-carboxy-3-ethylvalerylamino)phenyl)ethenyl]-6-[4-(4-propylphenyl)butoxy]methylpyridine 1/4 hydrate] | 6e-10 g/mL | 0.006 mg/kg | 1.9 mg/kg |  |  |
| CCCCOc1ccc(CCCCOCc2cccc(/C=C/c3cccc(NC(=O)CC(CC)(CC)C(=O)O)c3)n2)cc1 [Compound J, 2-[(E)-2-(3-(3-carboxy-3-ethylvalerylamino)phenyl)ethenyl]-6-[4-(4-butoxyphenyl)butoxy]methylpyridine 3/2 hydrate] | 9e-11 g/mL | 0.0046 mg/kg | 0.46 mg/kg |  |  |
| CCC(CC)(CC(=O)Nc1cccc(/C=C/c2cccc(COCCCCc3ccc(F)cc3)n2)c1)C(=O)O [Compound C, 2-[(E)-2-(3-(3-carboxy-3-ethylvalerylamino)phenyl)ethenyl]-6-[4-(4-fluorophenyl)butoxy]methylpyridine 1/2 hydrate] | 2.5e-09 g/mL | 0.03 mg/kg | 0.7 mg/kg |  |  |
| CCOc1ccc(CCCCOCc2cccc(/C=C/c3cccc(NC(=O)CC(CC)(CC)C(=O)O)c3)n2)cc1 [Compound H, 2-[(E)-2-(3-(3-carboxy-3-ethylvalerylamino)phenyl)ethenyl]-6-[4-(4-ethoxyphenyl)butoxy]methylpyridine] | 1.8e-10 g/mL | 0.01 mg/kg | 2 mg/kg |  |  |
